According to patent publication US20200131129A1, “FARNESOID X RECEPTOR AGONISTS AND USES THEREOF” (Metacrine, Inc., priority 2017, published 2020):

The molecules below were run against T1, hFXR (Homo sapiens, UniProt Q96RI1) (assay: In Vitro FXR Assay (TK): hFXR/hRXR TK-ECRE-luc reporter in transfected CV-1 cells). Settings: CV-1 cells transfected with hFXR, hRXR, 18 hrs incubation, luminescence, maximum efficacy <25% of Fexarmine control also classified as ‘+’.
T1 construct: expressed in transfected cells; host or cells: CV-1 cells
T1 sequence (Q96RI1 1-486): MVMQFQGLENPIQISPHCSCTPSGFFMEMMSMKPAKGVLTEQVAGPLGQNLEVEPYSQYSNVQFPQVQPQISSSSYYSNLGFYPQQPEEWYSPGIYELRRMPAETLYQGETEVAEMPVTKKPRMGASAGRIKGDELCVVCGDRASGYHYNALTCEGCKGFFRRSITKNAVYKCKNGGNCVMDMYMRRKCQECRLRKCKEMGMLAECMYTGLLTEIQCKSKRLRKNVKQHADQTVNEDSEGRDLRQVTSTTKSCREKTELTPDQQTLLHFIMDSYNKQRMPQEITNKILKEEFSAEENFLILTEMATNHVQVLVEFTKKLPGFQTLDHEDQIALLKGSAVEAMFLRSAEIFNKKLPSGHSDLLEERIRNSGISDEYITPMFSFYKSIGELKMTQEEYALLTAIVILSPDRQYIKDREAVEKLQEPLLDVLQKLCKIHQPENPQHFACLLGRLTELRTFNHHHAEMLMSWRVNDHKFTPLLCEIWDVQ
T1 sequence (P19793 1-462 partner): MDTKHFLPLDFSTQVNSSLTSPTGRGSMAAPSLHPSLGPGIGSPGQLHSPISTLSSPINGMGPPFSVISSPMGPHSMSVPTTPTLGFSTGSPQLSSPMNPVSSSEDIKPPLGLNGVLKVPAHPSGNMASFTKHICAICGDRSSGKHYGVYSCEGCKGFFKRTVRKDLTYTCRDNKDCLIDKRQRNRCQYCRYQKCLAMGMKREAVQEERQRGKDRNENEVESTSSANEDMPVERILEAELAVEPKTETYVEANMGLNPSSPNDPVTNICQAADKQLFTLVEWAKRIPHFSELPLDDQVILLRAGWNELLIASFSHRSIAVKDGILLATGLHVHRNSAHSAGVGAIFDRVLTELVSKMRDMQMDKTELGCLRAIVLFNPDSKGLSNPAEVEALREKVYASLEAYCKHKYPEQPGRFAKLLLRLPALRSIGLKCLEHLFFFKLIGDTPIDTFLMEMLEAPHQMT
Format: cell-based
Method in brief: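 CV-1 cells in charcoal-stripped serum were transiently transfected with hFXR, hRXR, TK-ECRE-luc reporter and pCMX-YFP plasmids for 18 h at 37 °C. Serially diluted compounds were added for 18 h, then cells were lysed and luciferase luminescence read.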

`COc1ccc([C@H]2CC[C@H](CN(c3cc(-c4coc(C5CC5)n4)ccn3)C(=O)[C@H]3CC[C@H](O)CC3)CC2)cc1C#N` [Compound 10.12, trans-N-((trans-4-(3-Cyano-4-methoxyphenyl)cyclohexyl)methyl)-N-(4-(2-cyclopropyloxazol-4-yl)pyridine-2-yl)-4-hydroxycyclohexanecarboxamide] and `COc1ccc([C@H]2CC[C@H](CN(c3cc(-c4coc(C5CC5)n4)ccn3)C(=O)[C@H]3CC[C@H](O)CC3)CC2)nc1C#N` [Compound 10.19, trans-N-((trans-4-(6-Cyano-5-methoxypyridin-2-yl)cyclohexyl)methyl)-N-(4-(2-cyclopropyloxazol-4-yl)pyridine-2-yl)-4-hydroxycyclohexanecarboxamide] cannot be ordered by EC50: ≤ 500 nM for the first, ≤ 500 nM for the second.

`COc1ccc([C@H]2CC[C@H](CN(c3cc(-c4coc(C(C)C)n4)ccn3)C(=O)[C@H]3CC[C@H](O)CC3)CC2)cc1C` [Compound 10.13, trans-4-Hydroxy-N-(4-(2-isopropyloxazol-4-yl)pyridine-2-yl)-N-((trans-4-(4-methoxy-3-methylphenyl)cyclohexyl)methyl) cyclohexanecarboxamide] and `COc1ccc([C@H]2CC[C@H](CN(c3cc(-c4coc(C(C)C)n4)ccn3)C(=O)[C@H]3CC[C@H](O)CC3)CC2)nc1C` [Compound 10.17, trans-4-Hydroxy-N-(4-(2-isopropyloxazol-4-yl)pyridine-2-yl)-N-((trans-4-(5-methoxy-6-methylpyridin-2-yl)cyclohexyl)methyl) cyclohexanecarboxamide] cannot be ordered by EC50: ≤ 500 nM for the first, ≤ 500 nM for the second.

`COc1ccc([C@H]2CC[C@H](CN(c3cccc(-c4coc(C5CC5)n4)c3)C(=O)[C@H]3CC[C@H](O)CC3)CC2)nc1C#N` [Compound 10.14, trans-N-((trans-4-(6-Cyano-5-methoxypyridin-2-yl)cyclohexyl)methyl)-N-(3-(2-cyclopropyloxazol-4-yl)phenyl)-4-hydroxycyclohexanecarboxamide] and `COc1ccc([C@H]2CC[C@H](CN(c3cccc(-c4coc(C(C)C)n4)c3)C(=O)[C@H]3CC[C@H](O)CC3)CC2)nc1C#N` [Compound 10.20, trans-N-((trans-4-(6-Cyano-5-methoxypyridin-2-yl)cyclohexyl)methyl)-4-hydroxy-N-(3-(2-isopropyloxazol-4-yl)phenyl)cyclohexanecarboxamide] cannot be ordered by EC50: ≤ 500 nM for the first, ≤ 500 nM for the second.

`COc1ccc([C@H]2CC[C@H](CN(c3cccc(-c4ccc(N(C)C)nc4)c3)C(=O)[C@H]3CC[C@H](O)CC3)CC2)nc1C` [Compound 10.15, trans-N-(3-(6-(Dimethylamino)pyridine-3-yl)phenyl)-4-hydroxy-N-((trans-4-(5-methoxy-6-methylpyridin-2-yl)cyclohexyl)methyl) cyclohexanecarboxamide] and `CCc1nc(-c2ccnc(N(C[C@H]3CC[C@H](c4ccc(OC)c(C)n4)CC3)C(=O)[C@H]3CC[C@H](O)CC3)c2)co1` [Compound 10.22, trans-N-(4-(2-Ethyloxazol-4-yl)pyridin-2-yl)-4-hydroxy-N-((trans-4-(5-methoxy-6-methylpyridin-2-yl)cyclohexyl)methyl) cyclohexanecarboxamide] cannot be ordered by EC50: ≤ 500 nM for the first, ≤ 500 nM for the second.

`COc1cnc([C@H]2CC[C@H](CN(c3cccc(-c4coc(C5CC5)n4)c3)C(=O)[C@H]3CC[C@H](O)CC3)CC2)cc1C` [Compound 10.16, trans-N-(3-(2-Cyclopropyloxazol-4-yl)phenyl)-4-hydroxy-N-((trans-4-(5-methoxy-4-methylpyridin-2-yl)cyclohexyl)methyl) cyclohexanecarboxamide] and `Cn1ccc2cc([C@H]3CC[C@H](CN(c4cccc(-c5coc(C6CC6)n5)c4)C(=O)[C@H]4CC[C@H](O)CC4)CC3)ncc21` [Compound 10.21] fall in the same range of EC50: 500 to 1000 nM for the first, 500 to 1000 nM for the second.

`COc1ncc([C@H]2CC[C@H](CN(c3cc(-c4coc(C5CC5)n4)ccn3)C(=O)[C@H]3CC[C@H](O)CC3)CC2)cc1C` [Compound 10.23, trans-N-(4-(2-Cyclopropyloxazol-4-yl)pyridin-2-yl)-4-hydroxy-N-((trans-4-(6-methoxy-5-methylpyridin-3-yl)cyclohexyl)methyl) cyclohexanecarboxamide] and `COc1ncc([C@H]2CC[C@H](CN(c3cc(-c4coc(C5CC5)n4)ccn3)C(=O)[C@H]3CC[C@H](O)CC3)CC2)cc1Cl` [Compound 10.24, trans-N-((trans-4-(5-Chloro-6-methoxypyridin-3-yl)cyclohexyl)methyl)-N-(4-(2-cyclopropyloxazol-4-yl)pyridin-2-yl)-4-hydroxycyclohexanecarboxamide] cannot be ordered by EC50: ≤ 500 nM for the first, ≤ 500 nM for the second.

`COc1ccc(C23CCC(CN(c4cccc(-c5coc(C6CC6)n5)c4)C(=O)[C@H]4CC[C@H](O)CC4)(CC2)CC3)cc1C` [Compound 10] and `COc1ccc([C@H]2CC[C@H](CN(c3cccc(C#Cc4ncco4)c3)C(=O)[C@H]3CC[C@H](O)CC3)CC2)cc1C` [Compound 11.01, trans-4-Hydroxy-N-((trans-4-(4-methoxy-3-methylphenyl)cyclohexyl)methyl)-N-(3-(oxazol-2-ylethynyl)phenyl)cyclohexanecarboxamide] cannot be ordered by EC50: ≤ 500 nM for the first, ≤ 500 nM for the second.

`COc1ccc([C@H]2CC[C@H](CN(c3cccc(C#Cc4ncns4)c3)C(=O)[C@H]3CC[C@H](O)CC3)CC2)cc1C` [Compound 11, trans-N-(3-((1,2,4-Thiadiazol-5-yl)ethynyl)phenyl)-4-hydroxy-N-((trans-4-(4-methoxy-3-methylphenyl)cyclohexyl)methyl)cyclohexanecarboxamide] and `COc1ccc([C@H]2CC[C@H](CN(c3cccc(C#Cc4nncs4)c3)C(=O)[C@H]3CC[C@H](O)CC3)CC2)cc1C` [Compound 11.02, trans-N-(3-((1,3,4-Thiadiazol-2-yl)ethynyl)phenyl)-4-hydroxy-N-((trans-4-(4-methoxy-3-methylphenyl)cyclohexyl)methyl) cyclohexanecarboxamide] cannot be ordered by EC50: ≤ 500 nM for the first, ≤ 500 nM for the second.

`COc1ccc([C@H]2CC[C@H](CN(c3cccc(C#Cc4nnn(C)n4)c3)C(=O)[C@H]3CC[C@H](O)CC3)CC2)cc1C` [Compound 11.03, trans-4-Hydroxy-N-((trans-4-(4-methoxy-3-methylphenyl)cyclohexyl)methyl)-N-(3-((2-methyl-2H-tetrazol-5-yl)ethynyl)phenyl) cyclohexanecarboxamide] and `COc1ccc([C@H]2CC[C@H](CN(c3cccc(C#Cc4ncn(C)n4)c3)C(=O)[C@H]3CC[C@H](O)CC3)CC2)cc1C` [Compound 12, trans-4-Hydroxy-N-((trans-4-(4-methoxy-3-methylphenyl)cyclohexyl)methyl)-N-(3-((1-methyl-1H-1,2,4-triazol-3-yl)ethynyl)phenyl)cyclohexanecarboxamide] cannot be ordered by EC50: ≤ 500 nM for the first, ≤ 500 nM for the second.

`COc1ccc([C@H]2CC[C@H](CN(c3cccc(C#Cc4ccccn4)c3)C(=O)[C@H]3CC[C@H](O)CC3)CC2)cc1C` [Compound 11.04, trans-4-Hydroxy-N-((trans-4-(4-methoxy-3-methylphenyl)cyclohexyl)methyl)-N-(3-(pyridine-2-ylethynyl)phenyl)cyclohexanecarboxamide] and `COc1ccc([C@H]2CC[C@H](CN(c3cccc(C#Cc4cnn(C)n4)c3)C(=O)[C@H]3CC[C@H](O)CC3)CC2)cc1C` [Compound 12.01, trans-4-Hydroxy-N-((trans-4-(4-methoxy-3-methylphenyl)cyclohexyl)methyl)-N-(3-((2-methyl-2H-1,2,3-triazol-4-yl)ethynyl)phenyl)cyclohexanecarboxamide] cannot be ordered by EC50: ≤ 500 nM for the first, ≤ 500 nM for the second.

`COc1ccc([C@H]2CC[C@H](CN(c3cccc(C#Cc4cn(C)nn4)c3)C(=O)[C@H]3CC[C@H](O)CC3)CC2)cc1C` [Compound 12.02, trans-4-Hydroxy-N-((trans-4-(4-methoxy-3-methylphenyl)cyclohexyl)methyl)-N-(3-((1-methyl-1H-1,2,3-triazol-4-yl)ethynyl)phenyl)cyclohexanecarboxamide] and `COc1ccc([C@H]2CC[C@H](CN(c3cccc(C#Cc4cn[nH]n4)c3)C(=O)[C@H]3CC[C@H](O)CC3)CC2)cc1C` [Compound 14.01, trans-N-(3-((2H-1,2,3-Triazol-4-yl)ethynyl)phenyl)-4-hydroxy-N-((trans-4-(4-methoxy-3-methylphenyl)cyclohexyl)methyl) cyclohexanecarboxamide] cannot be ordered by EC50: ≤ 500 nM for the first, ≤ 500 nM for the second.

`COc1ccc([C@H]2CC[C@H](CN(c3cccc(C#Cc4nnc[nH]4)c3)C(=O)[C@H]3CC[C@H](O)CC3)CC2)cc1C` [Compound 14, trans-N-(3-((1H-1,2,4-Triazol-3-yl)ethynyl)phenyl)-4-hydroxy-N-((trans-4-(4-methoxy-3-methylphenyl)cyclohexyl)methyl)cyclohexanecarboxamide] was tested, and the EC50 was ≤ 500 nM.
